Measured values reported in US8268848B2, “Cyclopropane compound” (Eisai R&D Management Co., Ltd., priority 2010, dated 2012).
Where two headings read alike, the source gives them in different places.

Tests used:
mice (C57BL/6NCrlCrLj) = assay: Sleep experiment (EEG/EMG) in mice; format: in vivo; details: for minimum effective dose (MED): oral, doses 0.3 to 100 mg/kg, accumulated sleep time within three hours after administration
Description: As a method for measuring the influence of the present compound on sleep time, electroencephalogram (EEG) and electromyogram (EMG) measurements were carried out in mice (C57BL/6NCrlCrLj).
In order to measure brain waves and muscle signals, EEG and EMG electrode implantation was performed on individual mice, and the mice were then housed in a state in which they could freely move and habituate in individual recording cages for 1 week or longer. Thereafter, amplified EEG and EMG signals were digitally recorded.
Mice received either oral administration of vehicle or test compound in vehicle, after which sleep/wake behavior of mice was recorded for 3 hours.
For sleep analysis, automatic analysis software from Kissei Comtec Co., Ltd. was used to analyze EEG frequency and EMG activity signals in detail and to determine sleep and wake states. Thereafter, accumulated sleeping time over 3 hours was calculated.
The effect of the compound to increase sleep time was evaluated as the difference between sleeping time on the vehicle-administration day and the sleep time on the subsequent drug-administration day.
The minimum effective dose (MED; mg/kg) was obtained from accumulated sleep time of mice with three hours after the administration.

OX1 [1] = molecular target: T1, OX1 (Homo sapiens, UniProt O43613); assay: Measurement of orexin receptor-binding ability ([125I]-OX-A, cell membranes, OX1); parameters: expressed in transfected cells; host or cells: CHO cells (membrane preparation)
T1 sequence (O43613 1-425): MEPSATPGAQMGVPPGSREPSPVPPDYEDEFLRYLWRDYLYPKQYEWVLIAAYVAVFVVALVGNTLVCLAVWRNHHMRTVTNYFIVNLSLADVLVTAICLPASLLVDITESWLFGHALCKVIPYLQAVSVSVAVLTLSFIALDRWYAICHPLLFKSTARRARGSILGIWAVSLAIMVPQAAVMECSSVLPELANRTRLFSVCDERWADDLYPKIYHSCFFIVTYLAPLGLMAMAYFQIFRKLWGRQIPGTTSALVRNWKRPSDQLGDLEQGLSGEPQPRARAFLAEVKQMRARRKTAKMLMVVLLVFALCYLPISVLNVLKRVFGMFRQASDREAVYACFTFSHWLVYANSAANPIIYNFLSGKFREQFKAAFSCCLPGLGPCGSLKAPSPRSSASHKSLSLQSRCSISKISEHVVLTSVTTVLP

OX2 [2] = molecular target: T2, OX2 (Homo sapiens, UniProt O43614); assay: Measurement of orexin receptor-binding ability ([125I]-OX-A, cell membranes, OX2); parameters: expressed in transfected cells; host or cells: CHO cells (membrane preparation); details: membranes of recombinant CHO cells expressing OX2, 0.2 nM [125I]-OX-A
T2 sequence (O43614 1-444): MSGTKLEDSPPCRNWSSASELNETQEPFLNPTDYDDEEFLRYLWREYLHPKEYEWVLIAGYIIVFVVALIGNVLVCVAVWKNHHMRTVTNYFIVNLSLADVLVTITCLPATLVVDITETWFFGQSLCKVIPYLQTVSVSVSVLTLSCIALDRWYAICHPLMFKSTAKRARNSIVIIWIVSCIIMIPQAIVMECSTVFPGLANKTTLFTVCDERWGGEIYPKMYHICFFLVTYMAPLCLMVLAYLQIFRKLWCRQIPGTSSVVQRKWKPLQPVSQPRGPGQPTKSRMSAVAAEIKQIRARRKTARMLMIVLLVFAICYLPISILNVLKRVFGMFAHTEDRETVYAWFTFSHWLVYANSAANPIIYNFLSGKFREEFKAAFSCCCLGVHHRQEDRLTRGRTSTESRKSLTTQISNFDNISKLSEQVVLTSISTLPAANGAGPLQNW

OX1 [3] = molecular target: T1, OX1; assay: Measurement of antagonism (PLAP assay), OX1; format: cell-based; parameters: expressed in transfected cells; host or cells: HEK-293 cells, expression vector pBabeCLIH
Description: (§1) 2. Measurement of Antagonism (PLAP Assay)
(§2) The antagonistic function of the compound of the present invention to prevent the activation of OX2 and OX1 by orexin-A (OX-A), which is a natural peptide agonist, was measured using a cell-based reporter assay. […] The cells were plated at a density of 10,000 cells/well onto a non-coated 96-well plate in Dulbecco's modified Eagle medium (Sigma Cat No. D6046:10% v/v heat-inactivated fetal bovine serum was contained). The cells were cultured at 37° C. overnight, so that they could adhere to the plate. On the following day, cells were incubated with a compound of the present invention dissolved in Dulbecco's modified Eagle medium (Sigma Cat No. A8806:0.1% w/v bovine serum albumin was contained), and added to the cell plate to reach a final concentration of 0.1% dimethyl sulfoxide.
(§3) The thus obtained mixture was incubated at room temperature for 1 hour. Thereafter, human OX-A and forskolin were dissolved in the same medium as described above, which contained fetal bovine serum albumin, and the medium was then added to the cells, resulting in a final concentration of 300 nM forskolin. Subsequently, the cells were cultured at 37° C. for approximately 18 to 24 hours.

OX2 [4] = molecular target: T2, OX2; assay: Measurement of antagonism (PLAP assay), OX2; format: cell-based; parameters: expressed in transfected cells; host or cells: HEK-293 cells, expression vector pBabeCLIH
Description: as §1, §2, §3

[5] = membranes of recombinant CHO cells expressing OX1, 0.2 nM [125I]-OX-A, read-out: OX1 (IC50)
[6] = HEK-293 cells expressing human OX1, 1 nM human OX-A, IC50 converted by Cheng-Prusoff equation, read-out: OX1 (Ki)
[7] = HEK-293 cells expressing human OX2, 1 nM human OX-A, IC50 converted by Cheng-Prusoff equation, read-out: OX2 (Ki)
[8] = mice, oral administration, difference to vehicle day, 3 hours

| SMILES | Sleep extended time 10 mg/kg (min/3 hrs) (mice (C57BL/6NCrlCrLj); po, 3 h) | IC50 (OX1 [1]; [5]) | IC50 (OX2 [2]; read-out: OX2 (IC50)) | Ki (OX1 [3]; [6]) | Ki (OX2 [4]; [7]) | Sleep extended time 10 mg/kg (min/3 hrs) (mice (C57BL/6NCrlCrLj); [8]) | IC50 (OX1 [1]) | IC50 (OX2 [2]; OX2 (IC50) nM) | Ki (OX2 [4]) | minimum effective dose (MED) (mice (C57BL/6NCrlCrLj); mice) | Ki (OX1 [3]) |
| --- | --- | --- | --- | --- | --- | --- | --- | --- | --- | --- | --- |
| CCc1nc(C)ncc1OC[C@@]1(c2ccccc2)C[C@H]1C(=O)Nc1ccc(C#N)cn1 [Example 120, (1R,2S)-N-(5-cyanopyridin-2-yl)-2-{[(4-ethyl-2-methylpyrimidin-5-yl)oxy]methyl}-2-phenylcyclopropanecarboxamide] | 11.5 min/3 hrs | 123 nM | 7 nM | 273 nM | 5.7 nM |  |  |  |  |  |  |
| Cc1ncc(OC[C@@]2(c3cccc(F)c3)C[C@H]2C(=O)Nc2cc(C)c(F)cn2)c(C)n1 [Example 82, (1R,2S)-2-{[(2,4-dimethylpyrimidin-5-yl)oxy]methyl}-N-(5-fluoro-4-methylpyridin-2-yl)-2-(3-fluorophenyl)cyclopropanecarboxamide] |  |  |  | 0.96 nM |  | 33.5 min/3 hrs | 2.4 nM | 3.7 nM | 0.085 nM |  |  |
| CCc1nc(C)ncc1OC[C@@]1(c2cccc(F)c2)C[C@H]1C(=O)Nc1ccccn1 [Example 240, (1R,2S)-2-{[(4-ethyl-2-methylpyrimidin-5-yl)oxy]methyl}-2-(3-fluorophenyl)-N-(pyridin-2-yl)cyclopropanecarboxamide] |  |  |  |  |  | 7.7 min/3 hrs | 8.7 nM | 2.9 nM | 0.91 nM | 10 mg/kg | 18 nM |
| Cc1ncc(OC[C@@]2(c3ccc(F)cc3)C[C@H]2C(=O)Nc2ccc(F)cn2)c(C)n1 [Example 100, (1R,2S)-2-{[(2,4-dimethylpyrimidin-5-yl)oxy]methyl}-2-(4-fluorophenyl)-N-(5-fluoropyridin-2-yl)cyclopropanecarboxamide] |  |  |  | 147 nM | 9.4 nM | 23.8 min/3 hrs | 40 nM | 7.6 nM |  |  |  |
| COc1cccc([C@]2(COc3cnc(C)nc3C)C[C@H]2C(=O)Nc2ccc(F)cn2)c1 [Example 186, (1R,2S)-2-{[(2,4-dimethylpyrimidin-5-yl)oxy]methyl}-N-(5-fluoropyridin-2-yl)-2-(3-methoxyphenyl)cyclopropanecarboxamide] |  |  |  | 87 nM | 3.4 nM | 14.7 min/3 hrs | 22 nM | 7 nM |  |  |  |
| CCc1nc(C)ncc1OC[C@@]1(c2ccccc2)C[C@H]1C(=O)Nc1ccc(Cl)cn1 [Example 121, (1R,2S)-N-(5-chloropyridin-2-yl)-2-{[(4-ethyl-2-methylpyrimidin-5-yl)oxy]methyl}-2-phenylcyclopropanecarboxamide] | 26.7 min/3 hrs | 10 nM | 3.1 nM | 26 nM | 0.3 nM |  |  |  |  |  |  |
| COCc1nc(C)ncc1OC[C@@]1(c2ccccc2)C[C@H]1C(=O)Nc1ccc(Cl)cn1 [Example 139, (1R,2S)-N-(5-chloropyridin-2-yl)-2-{[(4-(methoxymethyl)-2-methylpyrimidin-5-yl)oxy]methyl}-2-phenylcyclopropanecarboxamide] |  | 22 nM | 3.3 nM | 113 nM | 1.7 nM |  |  |  |  |  |  |
| Cc1ncc(OC[C@@]2(c3cc(F)cc(F)c3)C[C@H]2C(=O)Nc2cc(C)c(F)cn2)c(C)n1 [Example 129, (1R,2S)-2-(3,5-difluorophenyl)-2-{[(2,4-dimethylpyrimidin-5-yl)oxy]methyl}-N-(5-fluoro-4-methylpyridin-2-yl)cyclopropanecarboxamide] | 30.0 min/3 hrs | 1 nM | 1.5 nM | 0.97 nM | 0.06 nM |  |  |  |  |  |  |
| Cc1ncc(OC[C@@]2(c3cccc(F)c3)C[C@H]2C(=O)Nc2ccc(F)cn2)c(C)n1 [Example 95, (1R,2S)-2-{[(2,4-dimethylpyrimidin-5-yl)oxy]methyl}-2-(3-fluorophenyl)-N-(5-fluoropyridin-2-yl)cyclopropanecarboxamide] |  |  |  |  |  | 39.8 min/3 hrs | 13.4 nM |  |  | ≤ 1 mg/kg | 9.9 nM |
| Cc1ncc(OC[C@@]2(c3ccccc3)C[C@H]2C(=O)Nc2cccnc2)c(C)n1 [Example 66] |  | 398 nM | 50 nM | > 667 nM | 34 nM |  |  |  |  |  |  |
| COc1cncc(NC(=O)[C@@H]2C[C@@]2(COc2cnc(C)nc2C)c2ccccc2)c1 [Example 61] |  | 874 nM | 16 nM | > 667 nM | 26 nM |  |  |  |  |  |  |
| Cc1ncc(OC[C@@]2(c3ccccc3)C[C@H]2C(=O)Nc2ccccn2)c(C)n1 [Example 65] |  | 1030 nM |  | > 667 nM |  |  |  | 81 nM | 60 nM |  |  |
| Cc1ncc(OC[C@@]2(c3ccccc3)C[C@H]2C(=O)Nc2ccccc2)c(C)n1 [Example 64] |  | 74 nM | 15 nM | 133 nM | 6.3 nM |  |  |  |  |  |  |
| Cc1ncc(OC[C@@]2(c3ccccc3)C[C@H]2C(=O)Nc2ccc(F)c(C#N)c2)c(C)n1 [Example 26, (1R,2S)-N-(3-cyano-4-fluorophenyl)-2-{[(2,4-dimethylpyrimidin-5-yl)oxy]methyl}-2-phenylcyclopropanecarboxamide] |  | 20 nM | 3.7 nM | 27 nM | 0.4 nM |  |  |  |  |  |  |
| Cc1ncc(OC[C@@]2(c3ccccc3)C[C@H]2C(=O)Nc2ccncc2)c(C)n1 [Example 67] |  |  |  |  |  |  |  |  | 57 nM |  | > 667 nM |
| COCc1nc(C)ncc1OC[C@@]1(c2cccc(F)c2)C[C@H]1C(=O)Nc1cc(C)c(F)cn1 [Example 199, (1R,2S)-N-(5-fluoro-4-methylpyridin-2-yl)-2-(3-fluorophenyl)-2-{[(4-methoxymethyl-2-methylpyrimidin-5-yl)oxy]methyl}cyclopropanecarboxamide] | 36.2 min/3 hrs | 2 nM | 2 nM |  |  |  |  |  |  |  |  |
| COc1cc(NC(=O)[C@@H]2C[C@@]2(COc2cnc(C)nc2C)c2ccccc2)ncc1F [Example 73, (1R,2S)-2-{[(2,4-dimethylpyrimidin-5-yl)oxy]methyl}-N-(5-fluoro-4-methoxypyridin-2-yl)-2-phenylcyclopropanecarboxamide] | 22.7 min/3 hrs | 3.4 nM | 5.7 nM |  |  |  |  |  |  |  |  |
